{"source": "patent US20230043518A1", "about": "“CANCER IMMUNOTHERAPY” (AXELIA ONCOLOGY PTY LTD, priority 2019, published 2023)", "system": "4T1.2 (breast cancer)", "experiment": "4T1.2 breast cancer metastasis model", "format": "in vivo, mouse", "conditions": "compound 1 combined with anti-PD1 (data not shown)", "experimental": "C57BL/6 or Balb/c Wild-type (WT) mice were purchased from Walter and Eliza Hall Institute for Medical Research or bred in house and maintained at the QIMR Berghofer Medical Research Institute. Mice greater than 8 weeks of age were sex-matched to the appropriate models. In all studies, no mice were excluded based on pre-established criteria and randomization was applied immediately prior to treatment in therapy experiments. Experiments were conducted as approved by the QIMR Berghofer Medical Research Institute Animal Ethics Committee.\nMouse B16F10 (melanoma), MC38 (colon adenocarcinoma) and 4T1.2 (breast cancer) cells were grown in Dulbecco's Modified Eagle Medium (DMEM) supplemented with 10% Fetal Calf Serum (Bovogen), 1% Glutamine (Gibco), and 1% Penicillin/Streptomycin (Gibco). B16F10 and 4T1.2 cells were maintained at 37° C., 5% CO2. MC38 cells were maintained at 37° C., 10% CO2. All cell lines were routinely tested negative for Mycoplasma, but cell line authentication was not routinely performed.\n5×10^4 4T1.2 cells were injected into the 4th mammary fat pad in a volume of 50 μl (day 0). On day 12 after injection, primary tumours were surgically removed under isoflurane anesthesia. Mice were injected treated as indicated in figure legends on day 15, 18 and 21 after tumour cell injection. […] For this, macroscopic visible lung metastases were counted. […]", "data": [{"smiles": "CCCCCCCCCCCCCCCC(=O)OCC(CSCC(N)C(=O)N[C@@H](CO)C(=O)NCCOCCOCCOCCOCCOCCOCCOCCOCCOCCOCCOCCOCCC(=O)NCC(N)=O)OC(=O)CCCCCCCCCCCCCCC", "note": "(stereo partly shown) [compound 1]", "values": [{"measurement": "weight loss", "value": "without affecting weight loss"}]}]}
